{
  "source": "paper PMC10392676",
  "about": "“Structural basis of anti-SARS-CoV-2 activity of HCQ: specific binding to N protein to disrupt its interaction with nucleic acids and LLPS” (QRB Discovery, 2021)",
  "key": {"[1]": {"biological_target": "CTD of SARS-CoV-2 nucleocapsid (N) protein (Severe acute respiratory syndrome coronavirus 2, UniProt P0DTC9)", "experiment": "1H-15N HSQC NMR titration, […] MHz, one-site fit of chemical shift differences, average of […] residues", "type": "binding"}, "[2]": {"biological_target": "NTD of SARS-CoV-2 nucleocapsid (N) protein (Severe acute respiratory syndrome coronavirus 2, UniProt P0DTC9)", "experiment": "1H-15N HSQC NMR titration, […] MHz, one-site fit of chemical shift differences, average of […] residues", "type": "binding"}},
  "data": [
    {"smiles": "CCN(CCO)CCCC(C)Nc1ccnc2cc(Cl)ccc12", "note": "(centres unmarked) [Hydroxychloroquine]", "values": [
      {"measurement": "Kd", "setting": "[1]", "result": "52.1 ± 17.6", "unit": "µM"},
      {"measurement": "Kd", "setting": "[2]", "result": "112 ± 32.2", "unit": "µM"}
    ]}
  ]
}
